Values of other authors, collected in patent publication US20190091195A1, “USE OF DIANHYDROGALACTITOL AND DERIVATIVES THEREOF IN THE TREATMENT OF GLIOBLASTOMA, LUNG CANCER, AND OVARIAN CANCER” (Del Mar Pharmaceuticals, priority 2015, published 2019).

Assays:
GSK-3β = GSK-3β (Homo sapiens, UniProt P49841); conditions: cited from earlier work
[1] = cited from earlier work

Chain of GSK-3β (P49841 whole entry, species assumed): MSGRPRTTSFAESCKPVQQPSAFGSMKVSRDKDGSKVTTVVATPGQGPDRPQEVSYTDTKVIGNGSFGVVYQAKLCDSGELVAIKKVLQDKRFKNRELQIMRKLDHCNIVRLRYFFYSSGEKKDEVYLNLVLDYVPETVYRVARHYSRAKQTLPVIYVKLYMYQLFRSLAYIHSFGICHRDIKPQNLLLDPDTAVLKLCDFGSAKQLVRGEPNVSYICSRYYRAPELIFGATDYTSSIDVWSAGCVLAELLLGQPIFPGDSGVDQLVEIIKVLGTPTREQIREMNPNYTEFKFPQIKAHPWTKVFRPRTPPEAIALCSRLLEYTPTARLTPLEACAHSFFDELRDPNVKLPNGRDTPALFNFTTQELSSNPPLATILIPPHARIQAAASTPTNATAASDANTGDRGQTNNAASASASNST

| Structure (SMILES) | concentration for inhibition of GSK-3β (GSK-3β) [nM] | absorption by the oral route [1] |
| --- | --- | --- |
| CN1C(=O)/C(=C2/C(=O)Nc3ccccc32)c2ccccc21 [Meisoindigo] | 5 to 50 |  |
| O[C@H]([C@H](O)[C@@H](O)CBr)[C@H](O)CBr [dibromodulcitol] |  | rapid and fairly complete |
